Measurements reported in patent publication US9597527B2, “Enhancement of penetration and action” (Merck Patent GmbH, priority 2010, dated 2017).

Assay: In vitro skin permeation, Franz-type diffusion cells, with light device irradiation
Type: in vitro ADME, pig
Settings: Fucicort cream 4 mg/cm^2 on SC, p<0.005
Protocol: Full Thickness skin is removed from the back of pig ears. The subcutaneous tissue is removed and the skin is mounted in open two-chamber Franz-type diffusion cells (diffusion area: 3.14 cm^−2; recipient volume: 10 ml). Temperature is kept at 32° C. at the skin surface. Recipient phase is a 0.05 M isotonic acetate buffer, pH 4.5, and 2-propanol (80:20%, vol/vol). The experiments are carried out under sink condition.
The test formulation (4 mg/cm^2) is applied to the stratum corneum (SC) side of the skin. The treatment is reapplied at 3, 21, 27, 45, and 51 h, which simulates the actual dosage regimen in patients. At appropriate times (3, 21, 27, 45, 51, and 70 h) a specific amount of recipient phase is withdrawn and replaced by thermostated fluid. Samples are kept at 4° C. for a maximum of 2 days until high-performance liquid chromatography (HPLC) analysis. All permeation experiments are carried out in 6 replicates.
The same experiment as described above is carried out.
The same experiment as described above is carried out. Again, the skin is irradiated for 2 h after each application of the cream, but with the devices Dev4-6 of Example 4 in three separate runs, one run for each device. The devices are positioned directly above the SC. If the cream is applied or reapplied the light emitting device is repositioned on the SC 5 minutes afterwards. After having the skin irradiated for 1 h, the irradiation source is removed from the skin. Again samples of the recipient are taken and analyzed by HPLC in time intervals given above.

C[C@H]1C[C@H]2[C@@H]3CCC4=CC(=O)C=C[C@]4(C)[C@@]3(F)[C@@H](O)C[C@]2(C)[C@@]1(O)C(=O)CO [betamethasone]
permeation enhanced as compared to the control experiment (skin irradiated for 30 min with IR device Dev5, positioned 5 minutes after application): 20% | permeation enhanced as compared to the control experiment (skin irradiated for 2 h after each application with IR devices Dev4-6, one run each, all three devices): more than 27% | permeation enhanced as compared to the control experiment (skin irradiated for 2 h after each application with device Dev1 (red OLED), recipient samples by HPLC): 14%
